Test results from EP0888055B1, “HERBICIDAL COMPOSITION AND METHOD OF WEED CONTROL” (Novartis AG, priority 1996, dated 1997).

Legend:
Brachiaria [1] = test: Pre-emergence test (Example B2); type: in vivo; conditions: 34 days
Text: (§1) The expected herbicidal action E for a given combination of two herbicides can be calculated as follows (see COLBY, S.R., "Calculating synergistic and antagonistic response of herbicide combinations", Weeds 15, pages 20-22, 1967): E = X +(Y • (100 - X))/(100) [formula]
(§2) In the above formula: X = percentage growth inhibition in the case of treatment with the compound of formula A at a rate of application of p kg per hectare compared with the untreated control (= 0 %). Y = percentage herbicidal action in the case of treatment with one of the mixing partners at a rate of application of q kg per hectare compared with the untreated control. E = Expected herbicidal action (percentage herbicidal action compared with the untreated control) after treatment with the compounds of formulae A and the mixing partners at a rate of application of p + q kg of active ingredient per hectare.
(§3) The test plants are sown in plastics pots in standard soil. Directly after sowing the test compounds are applied by spraying, separately or in admixture, in the form of an aqueous suspension of the test compounds (Formulation Example F8, c) and d)) or in the form of an emulsion concentrate (Formulation Example F1, d)) in 500 l of water/ha. The rates of application conform to the optimum concentrations ascertained under field conditions and greenhouse conditions. The test plants are then cultivated in the greenhouse under optimum conditions. After 34 days' (Tables B2 to B5) and 41 days' (Table B6) test duration, the test is evaluated (% action, 100 % = plants have died, 0 % = no phytotoxic action). From 61 to 80 % (especially from 81 to 100 %) phytotoxicity indicates good to very good herbicidal action in weeds; from 0 to 15 % (especially from 0 to 5 %) phytotoxicity indicates good to very good tolerance in useful plants.

Maize [2] = test: Pre-emergence test (Example B2), tolerance of useful plant; type: in vivo
Text: as §3

Euphorbia = test: Pre-emergence test (Example B2); type: in vivo
Text: as §1, §2, §3
(§4) Test plants: abutilon, bidens, euphorbia, ipomoea, sesbamia, xanthium, rottboellia, sida, Sorghum bicolor.

Xanthium = test: Pre-emergence test (Example B2); type: in vivo; conditions: 34 days
Text: as §1, §2, §3, §4

Abutilon = test: Pre-emergence test (Example B2); type: in vivo
Text: as §1, §2, §3, §4

Sida = test: Pre-emergence test (Example B2); type: in vivo
Text: as §1, §2, §3, §4

Brachiaria [3] = test: Post-emergence test (Example B1); type: in vivo; conditions: 24 days
Text: as §1, §2
(§5) The test plant seeds are grown to the 4- to 6-leaf stage under greenhouse conditions in plastics pots. The culture substrate used is a standard soil. At the 4- to 6-leaf stage the herbicides are applied separately and in admixture to the test plants. The test compounds are applied in the form of an aqueous suspension (Formulation Example F8, c)) in 500 l of water/ha. The rates of application conform to the optimum concentrations ascertained under field conditions and greenhouse conditions. Evaluation of the tests is carried out after 24 days. The following linear scale is used as a measure (% action): • 100 % = plants have died • 50 % = moderate action • 0 % = no phytotoxic action (as untreated control).
(§6) Test plants: brachiaria, cyperus, digitaria, echinochloa, panicum.

Digitaria = test: Post-emergence test (Example B1); type: in vivo; conditions: 24 days
Text: as §1, §2, §5, §6

Panicum = test: Post-emergence test (Example B1); type: in vivo; conditions: 24 days
Text: as §1, §2, §5, §6

Echinochloa = test: Post-emergence test (Example B1); type: in vivo; conditions: 24 days
Text: as §1, §2, §5, §6

Sorghum bic. = test: Pre-emergence test (Example B2); type: in vivo, Sorghum bicolor; conditions: 41 days
Text: as §1, §2
The test plants are sown in plastics pots in standard soil. Directly after sowing the test compounds are applied by spraying, separately or in admixture, in the form of an aqueous suspension of the test compounds (Formulation Example F8, c) and d)) or in the form of an emulsion concentrate (Formulation Example F1, d)) in 500 l of water/ha. […] After 34 days' (Tables B2 to B5) and 41 days' (Table B6) test duration, the test is evaluated (% action, 100 % = plants have died, 0 % = no phytotoxic action). […]

Cyperus = test: Post-emergence test (Example B1); type: in vivo; conditions: 24 days
Text: as §1
In the above formula: X = percentage growth inhibition in the case of treatment with the compound of formula A at a rate of application of p kg per hectare compared with the untreated control (= 0 %). Y = percentage herbicidal action in the case of treatment with one of the mixing partners at a rate of application of q kg per hectare compared with the untreated control.
as §5, with “days.” for “days. The following linear scale is used as a measure (% action): • 100 % = plants have died • 50 % = moderate action • 0 % = no phytotoxic action (as untreated control).”
as §6

Maize [4] = test: Breakdown in treated useful plants; conditions: after application of the compositions; especially maize; compared with metolachlor
Sesbania = test: Pre-emergence test (Example B2); type: in vivo; conditions: 34 days
Text: as §1, §2, §3, §4

Rottboellia = test: Pre-emergence test (Example B2); type: in vivo
Text: as §1, §2, §3, §4

Ipomoea = test: Pre-emergence test (Example B2); type: in vivo
Text: as §1, §2, §3, §4

Bidens = test: Pre-emergence test (Example B2); type: in vivo; conditions: 34 days
Text: as §1, §2, §3, §4

[5] = 150 g active ingredient/ha, 34 days
[6] = 300 g active ingredient/ha, 34 days
[7] = 600 g active ingredient/ha, 34 days
[8] = 8 g active ingredient/ha, 41 days
[9] = 15 g active ingredient/ha, 34 days
[10] = 15 g active ingredient/ha, 41 days
[11] = 30 g active ingredient/ha, 34 days
[12] = 60 g active ingredient/ha, 34 days
[13] = 60 g active ingredient/ha, 41 days
[14] = 30 g active ingredient/ha, 41 days
[15] = 125 g active ingredient/ha, 34 days
[16] = 250 g active ingredient/ha, 34 days
[17] = 500 g active ingredient/ha, 34 days
[18] = 1000 g active ingredient/ha, 34 days
[19] = 125 g active ingredient/ha, 41 days
[20] = 250 g active ingredient/ha, 41 days
[21] = 500 g active ingredient/ha, 41 days
[22] = 1000 g active ingredient/ha, 41 days

CCc1cccc(C)c1N(C(=O)CCl)[C@@H](C)COC [Met-S, aRS,1'S(-)-N-(1'-methyl-2'-methoxyethyl)-N-chloroacetyl-2-ethyl-6-methylaniline]
Herbicidal activity, Weed: Brachiaria (Brachiaria [1]; 150 g active ingredient/ha): 20%
Herbicidal activity, Weed: Brachiaria (Brachiaria [1]; 300 g active ingredient/ha): 50%
Herbicidal activity, Useful plant: Maize (Maize [2]; [5]): 0%
Herbicidal activity, Useful plant: Maize (Maize [2]; [6]): 10%
Herbicidal activity, Useful plant: Maize (Maize [2]; [7]): 10%
Herbicidal activity, Weed: Euphorbia (Euphorbia; [5]): 0%
Herbicidal activity, Weed: Euphorbia (Euphorbia; [6]): 0%
Herbicidal activity, Weed: Euphorbia (Euphorbia; [7]): 0%
Herbicidal activity, Weed: Xanthium (Xanthium; 300 g active ingredient/ha): 0%
Herbicidal activity, Weed: Xanthium (Xanthium; 600 g active ingredient/ha): 20%
Herbicidal activity, Weed: Abutilon (Abutilon; [5]): 0%
Herbicidal activity, Weed: Abutilon (Abutilon; [6]): 10%
Herbicidal activity, Weed: Sida (Sida; [5]): 0%
Herbicidal activity, Weed: Sida (Sida; [6]): 40%

C=CCOC(=O)C(C)(C)OC(=O)c1cc(-n2c(=O)cc(C(F)(F)F)n(C)c2=O)ccc1Cl [A]
Herbicidal activity, Weed: Brachiaria (Brachiaria [1]; 60 g active ingredient/ha): 60%
Herbicidal activity, Useful plant: Maize (Maize [2]; [8]): 0%
Herbicidal activity, Useful plant: Maize (Maize [2]; [9]): 0%
Herbicidal activity, Useful plant: Maize (Maize [2]; [10]): 0%
Herbicidal activity, Useful plant: Maize (Maize [2]; [11]): 10%
Herbicidal activity, Useful plant: Maize (Maize [2]; [12]): 10%
Herbicidal activity, Useful plant: Maize (Maize [2]; [13]): 40%
Herbicidal activity, Weed: Brachiaria (Brachiaria [3]; 100 g active ingredient/ha): 10%
Herbicidal activity, Weed: Brachiaria (Brachiaria [3]; 200 g active ingredient/ha): 15%
Herbicidal activity, Weed: Digitaria (Digitaria; 50 g active ingredient/ha): 85%
Herbicidal activity, Weed: Digitaria (Digitaria; 100 g active ingredient/ha): 90%
Herbicidal activity, Weed: Digitaria (Digitaria; 200 g active ingredient/ha): 90%
Herbicidal activity, Weed: Panicum (Panicum; 50 g active ingredient/ha): 50%
Herbicidal activity, Weed: Panicum (Panicum; 200 g active ingredient/ha): 70%
Herbicidal activity, Weed: Echinochloa (Echinochloa; 100 g active ingredient/ha): 15%
Herbicidal activity, Weed: Echinochloa (Echinochloa; 200 g active ingredient/ha): 45%
Herbicidal activity, Weed: Sorghum bic. (Sorghum bic.; 8 g active ingredient/ha): 0%
Herbicidal activity, Weed: Cyperus (Cyperus; 50 g active ingredient/ha): 50%
Herbicidal activity, Weed: Cyperus (Cyperus; 100 g active ingredient/ha): 60%
breakdown in the useful plants treated (Maize [4]): broken down more rapidly
Herbicidal activity, Weed: Sesbania (Sesbania; 60 g active ingredient/ha): 50%
Herbicidal activity, Weed: Rottboellia (Rottboellia; [14]): 80%
Herbicidal activity, Weed: Rottboellia (Rottboellia; [12]): 30%
Herbicidal activity, Weed: Rottboellia (Rottboellia; [13]): 70%
Herbicidal activity, Weed: Euphorbia (Euphorbia; [9]): 0%
Herbicidal activity, Weed: Euphorbia (Euphorbia; [10]): 85%
Herbicidal activity, Weed: Euphorbia (Euphorbia; [11]): 90%
Herbicidal activity, Weed: Xanthium (Xanthium; 15 g active ingredient/ha): 0%
Herbicidal activity, Weed: Xanthium (Xanthium; 30 g active ingredient/ha): 0%
Herbicidal activity, Weed: Xanthium (Xanthium; 60 g active ingredient/ha): 20%
Herbicidal activity, Weed: Ipomoea (Ipomoea; [11]): 20%
Herbicidal activity, Weed: Ipomoea (Ipomoea; [14]): 0%
Herbicidal activity, Weed: Ipomoea (Ipomoea; [12]): 30%
Herbicidal activity, Weed: Abutilon (Abutilon; [8]): 50%
Herbicidal activity, Weed: Abutilon (Abutilon; [9]): 20%
Herbicidal activity, Weed: Abutilon (Abutilon; [10]): 80%
Herbicidal activity, Weed: Abutilon (Abutilon; [11]): 40%
Herbicidal activity, Weed: Bidens (Bidens; 15 g active ingredient/ha): 20%
Herbicidal activity, Weed: Bidens (Bidens; 30 g active ingredient/ha): 30%
Herbicidal activity, Weed: Bidens (Bidens; 60 g active ingredient/ha): 90%
Herbicidal activity, Weed: Sida (Sida; [8]): 40%
Herbicidal activity, Weed: Sida (Sida; [9]): 80%

CCNc1nc(Cl)nc(NC(C)(C)C)n1 [Terb, terbuthylazine]
Herbicidal activity, Useful plant: Maize (Maize [2]; [15]): 0%
Herbicidal activity, Useful plant: Maize (Maize [2]; [16]): 0%
Herbicidal activity, Useful plant: Maize (Maize [2]; [17]): 0%
Herbicidal activity, Weed: Sesbania (Sesbania; 250 g active ingredient/ha): 80%
Herbicidal activity, Weed: Euphorbia (Euphorbia; [15]): 40%
Herbicidal activity, Weed: Euphorbia (Euphorbia; [16]): 70%
Herbicidal activity, Weed: Euphorbia (Euphorbia; [17]): 95%
Herbicidal activity, Weed: Ipomoea (Ipomoea; [15]): 0%
Herbicidal activity, Weed: Ipomoea (Ipomoea; [17]): 95%
Herbicidal activity, Weed: Abutilon (Abutilon; [16]): 30%
Herbicidal activity, Weed: Abutilon (Abutilon; [17]): 90%
Herbicidal activity, Weed: Bidens (Bidens; 125 g active ingredient/ha): 0%
Herbicidal activity, Weed: Bidens (Bidens; 250 g active ingredient/ha): 60%

O=C(O)CNCP(=O)(O)O [Gly, glyphosate]
Herbicidal activity, Weed: Brachiaria (Brachiaria [3]; 200 g active ingredient/ha): 60%
Herbicidal activity, Weed: Brachiaria (Brachiaria [3]; 300 g active ingredient/ha): 70%
Herbicidal activity, Weed: Brachiaria (Brachiaria [3]; 400 g active ingredient/ha): 70%
Herbicidal activity, Weed: Digitaria (Digitaria; 100 g active ingredient/ha): 25%
Herbicidal activity, Weed: Panicum (Panicum; 100 g active ingredient/ha): 70%
Herbicidal activity, Weed: Echinochloa (Echinochloa; 200 g active ingredient/ha): 0%
Herbicidal activity, Weed: Echinochloa (Echinochloa; 400 g active ingredient/ha): 20%

CCc1cccc(C)c1N(C(=O)CCl)C(C)COC (racemic) [Met.rac., metolachlor]
Herbicidal activity, Useful plant: Maize (Maize [2]; [16]): 0%
Herbicidal activity, Useful plant: Maize (Maize [2]; [17]): 0%
Herbicidal activity, Useful plant: Maize (Maize [2]; [18]): 0%
Herbicidal activity, Weed: Sesbania (Sesbania; 1000 g active ingredient/ha): 60%
Herbicidal activity, Weed: Rottboellia (Rottboellia; [18]): 0%
Herbicidal activity, Weed: Euphorbia (Euphorbia; [17]): 0%
Herbicidal activity, Weed: Ipomoea (Ipomoea; [18]): 0%
Herbicidal activity, Weed: Abutilon (Abutilon; [17]): 20%
Herbicidal activity, Weed: Abutilon (Abutilon; [18]): 20%
Herbicidal activity, Weed: Bidens (Bidens; 1000 g active ingredient/ha): 30%
Herbicidal activity, Weed: Sida (Sida; [16]): 0%
Herbicidal activity, Weed: Sida (Sida; [17]): 50%

COCC(C)N(C(=O)CCl)c1c(C)csc1C (stereo not drawn) [Dime, dimethenamid]
Herbicidal activity, Useful plant: Maize (Maize [2]; [19]): 0%
Herbicidal activity, Useful plant: Maize (Maize [2]; [20]): 0%
Herbicidal activity, Useful plant: Maize (Maize [2]; [21]): 0%
Herbicidal activity, Useful plant: Maize (Maize [2]; [22]): 20%
Herbicidal activity, Weed: Sorghum bic. (Sorghum bic.; 1000 g active ingredient/ha): 80%
Herbicidal activity, Weed: Rottboellia (Rottboellia; [19]): 20%
Herbicidal activity, Weed: Euphorbia (Euphorbia; [21]): 30%
Herbicidal activity, Weed: Ipomoea (Ipomoea; [22]): 0%
Herbicidal activity, Weed: Abutilon (Abutilon; [20]): 10%
Herbicidal activity, Weed: Sida (Sida; [20]): 40%
Herbicidal activity, Weed: Sida (Sida; [21]): 85%
Herbicidal activity, Weed: Sida (Sida; [22]): 95%

CCNc1nc(Cl)nc(NC(C)C)n1 [Atra, atrazine]
Herbicidal activity, Useful plant: Maize (Maize [2]; [15]): 0%
Herbicidal activity, Useful plant: Maize (Maize [2]; [16]): 0%
Herbicidal activity, Useful plant: Maize (Maize [2]; [17]): 0%
Herbicidal activity, Weed: Euphorbia (Euphorbia; [15]): 0%
Herbicidal activity, Weed: Xanthium (Xanthium; 250 g active ingredient/ha): 0%
Herbicidal activity, Weed: Xanthium (Xanthium; 500 g active ingredient/ha): 95%
Herbicidal activity, Weed: Ipomoea (Ipomoea; [15]): 0%
Herbicidal activity, Weed: Ipomoea (Ipomoea; [16]): 70%
Herbicidal activity, Weed: Abutilon (Abutilon; [15]): 0%
Herbicidal activity, Weed: Abutilon (Abutilon; [17]): 98%
Herbicidal activity, Weed: Bidens (Bidens; 125 g active ingredient/ha): 60%
